Assay results taken from ChEMBL document CHEMBL1151589, “Synthesis and inhibitory activity of optically active 2-benzyl-3-mercaptopropanoic acid against carboxypeptidase A” (Bioorg Med Chem Lett, 1993).

What was measured:
[1] = Compound was tested for inhibitory activity against Carboxypeptidase A
[2] = target: T1, Mast cell carboxypeptidase A (Homo sapiens, UniProt P15088); assay: Compound was tested for inhibitory activity against carboxypeptidase A; Not active
T1 sequence (P15088 whole entry): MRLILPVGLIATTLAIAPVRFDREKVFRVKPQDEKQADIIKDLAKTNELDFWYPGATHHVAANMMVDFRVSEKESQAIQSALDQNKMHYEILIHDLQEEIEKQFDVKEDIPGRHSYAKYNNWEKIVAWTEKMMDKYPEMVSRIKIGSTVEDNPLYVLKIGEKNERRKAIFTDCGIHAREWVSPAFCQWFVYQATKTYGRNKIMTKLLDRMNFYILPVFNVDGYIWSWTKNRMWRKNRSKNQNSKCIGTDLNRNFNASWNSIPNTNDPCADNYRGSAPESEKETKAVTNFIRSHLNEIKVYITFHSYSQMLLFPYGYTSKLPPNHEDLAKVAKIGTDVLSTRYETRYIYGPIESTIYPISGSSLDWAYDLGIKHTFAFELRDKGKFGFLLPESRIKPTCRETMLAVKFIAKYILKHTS

Ki [1]	Ki [2]	Compound
11 µM	–	O=C(O)C(CS)Cc1ccccc1 (racemic)
–	Not Active	O=C(O)[C@H](CS)Cc1ccccc1
